Measured values taken from patent US20110039763A1, “TARGETED ANTIMICROBIAL MOIETIES” (C3 JIAN, INC., priority 2009, published 2011).

Tests used:
microorganisms [1] = experiment: Peptide activities: targeting/binding, antimicrobial, growth or phenotype altering (Tables 7, 8); assay type: cell-based; parameters: key: B: targeting/binding activity;; M: antimicrobial activity;; G: Growth or phenotype altering; settings: peptides having multiple activities
microorganisms [2] = experiment: Morphology, biofilm and growth disrupting peptides (Table 5); assay type: cell-based; parameters: key: A: Peptide aggregates; B: Less hyphal formation; Clumps; Diffuse clumps and small polyps; F: Diffuse growth; H: Thin; I: Growth inhibition; Microcolony formation; Rippled; Small polyps; Thick; W: Halo formation on top, microlonies on bottom
Excerpt: In certain embodiments peptides that induce alterations in phenotype or other biological activities can also be used as antimicrobial effector moieties.

Substance	Activities (microorganisms [1])	Organism, effect: MRSA (microorganisms [2]; MRSA)	Organism, effect: S. epidermidis (microorganisms [2]; S. epidermidis)	Organism, effect (microorganisms [2]; MRSA)	Organism, effect (microorganisms [2]; S. epidermidis)	Organism, effect (microorganisms [2]; S. pneumoniae)	further results
PF-178: peptide having multiple activities (EVYSSPTNNVAITVQNN; Peptide with targeting and/or antimicrobial activity)	G B	MRSA (M)	S. epidermidis (D)				Organism, effect: E. coli (microorganisms [2]; E. coli): E. coli (C); Organism, effect: S. pneumoniae (microorganisms [2]; S. pneumoniae): S. pneumoniae (D)
PF-190: peptide having multiple activities (HFILRKPLLFMIHSLKTGPLDRF; Peptide with targeting and/or antimicrobial activity)	G B		S. epidermidis (C)				Organism, effect: C. jeikeium (microorganisms [2]; C. jeikeium): C. jeikeium (R)
EILNNNQVIKELTMKYKTQFESNLGGWTARARR [PF-580]	G B			MRSA (M)	S. epidermidis (M)	S. pneumoniae (C)	Organism, effect (microorganisms [2]; M. luteus): M. luteus (C)
PF-577: peptide having multiple activities (PFETRESFRVPVIGILGGWDYFMHP; Peptide with targeting and/or antimicrobial activity)	G B			MRSA (M)	S. epidermidis (A)	S. pneumoniae (R)	Organism, effect (microorganisms [2]; C. jejuni): C. jejuni (R); Organism, effect (microorganisms [2]; E. coli): E. coli (A); Organism, effect (microorganisms [2]; E. faecalis): E. faecalis (A); Organism, effect (microorganisms [2]; P. aeruginosa): P. aeruginosa (A)
PF-374: peptide having multiple activities (chain 1 HLFFVKGMFILCQKNQINDE; chain 2 HLFFVKGMFILCQKNQINDE; Peptide with targeting and/or antimicrobial activity)	G B	MRSA (M)	S. epidermidis (C)				Organism, effect: E. coli (microorganisms [2]; E. coli): E. coli (C); Organism, effect: E. faecalis (microorganisms [2]; E. faecalis): E. faecalis (C)
PF-067: peptide having multiple activities (DLIVKVHICFVVKTASGYCYLNKREAQAAI; Peptide with targeting and/or antimicrobial activity)	G B	MRSA (M)	S. epidermidis (D)				Organism, effect: B. subtilis (microorganisms [2]; B. subtilis): B. subtilis (C); Organism, effect: C. jeikeium (microorganisms [2]; C. jeikeium): C. jeikeium (D); Organism, effect: C. jejuni (microorganisms [2]; C. jejuni): C. jejuni (D); Organism, effect: M. luteus (microorganisms [2]; M. luteus): M. luteus (R); Organism, effect: P. aeruginosa (microorganisms [2]; P. aeruginosa): P. aeruginosa (A); Organism, effect: S. pneumoniae (microorganisms [2]; S. pneumoniae): S. pneumoniae (D)
PF-076: peptide having multiple activities (chain 1 LYQYELLSKEEYLKCTLIINQRRNEQK; chain 2 LYQYELLSKEEYLKCTLIINQRRNEQK; Peptide with targeting and/or antimicrobial activity)	G B	MRSA (R)	S. epidermidis (S)				Organism, effect: C. jeikeium (microorganisms [2]; C. jeikeium): C. jeikeium (A); Organism, effect: M. luteus (microorganisms [2]; M. luteus): M. luteus (A)
PF-379: peptide having multiple activities (chain 1 VFVVLFIIYLASKLLTKLFPIKK; chain 2 VFVVLFIIYLASKLLTKLFPIKK; Peptide with targeting and/or antimicrobial activity)	G B	MRSA (C)	S. epidermidis (C)				Organism, effect: E. coli (microorganisms [2]; E. coli): E. coli (C); Organism, effect: E. faecalis (microorganisms [2]; E. faecalis): E. faecalis (C)
PF-012: peptide having multiple activities (WRGPNTEAGGKSANNIVQVGGAPT; Peptide with targeting and/or antimicrobial activity)	G B	MRSA (R)	S. epidermidis (S)				Organism, effect: C. jeikeium (microorganisms [2]; C. jeikeium): C. jeikeium (A); Organism, effect: M. luteus (microorganisms [2]; M. luteus): M. luteus (C)
PF-516: peptide having multiple activities (ASKQASKQASKQASKQ; Peptide with targeting and/or antimicrobial activity)	G					S. pneumoniae (H)	
PF-125: peptide having multiple activities (chain 1 YVVGALVILAVAGLIYSMLRKA; chain 2 YVVGALVILAVAGLIYSMLRKA; Peptide with targeting and/or antimicrobial activity)	G B		S. epidermidis (D)				Organism, effect: M. luteus (microorganisms [2]; M. luteus): M. luteus (C)
PF-478: peptide having multiple activities (HLFILKSHLKPFPPFRYTYD; Peptide with targeting and/or antimicrobial activity)	G B			MRSA (H)	S. epidermidis (C)	S. pneumoniae (C)	Organism, effect (microorganisms [2]; E. coli): E. coli (C)
PF-030: peptide having multiple activities (MTCHQAPTTTHQSNMA; Peptide with targeting and/or antimicrobial activity)	G B	MRSA (R)	S. epidermidis (D)				Organism, effect: C. jeikeium (microorganisms [2]; C. jeikeium): C. jeikeium (C); Organism, effect: M. luteus (microorganisms [2]; M. luteus): M. luteus (C)
PF-537: peptide having multiple activities (LANDYYKKTKKSW; Peptide with targeting and/or antimicrobial activity)	G B					S. pneumoniae (C)	
PF-556: peptide having multiple activities (SLQIRMNTLTAAKASIEAA; Peptide with targeting and/or antimicrobial activity)	G B			MRSA (M)	S. epidermidis (A)	S. pneumoniae (D)	Organism, effect (microorganisms [2]; B. subtilis): B. subtilis (C); Organism, effect (microorganisms [2]; C. jeikeium): C. jeikeium (D); Organism, effect (microorganisms [2]; C. jejuni): C. jejuni (R); Organism, effect (microorganisms [2]; E. faecalis): E. faecalis (A); Organism, effect (microorganisms [2]; M. luteus): M. luteus (A)
PF-605: peptide having multiple activities (chain 1 HYRWNTQWWKY; chain 2 HYRWNTQWWKY; Peptide with targeting and/or antimicrobial activity)	G B			MRSA (C)	S. epidermidis (R)	S. pneumoniae (D)	Organism, effect (microorganisms [2]; C. albicans): C. albicans (B); Organism, effect (microorganisms [2]; C. jejuni): C. jejuni (R); Organism, effect (microorganisms [2]; E. coli): E. coli (C); Organism, effect (microorganisms [2]; E. faecalis): E. faecalis (R); Organism, effect (microorganisms [2]; P. aeruginosa): P. aeruginosa (A)
PF-592: peptide having multiple activities (chain 1 IMKNYKYFKLFIVKYALF; chain 2 IMKNYKYFKLFIVKYALF; Peptide with targeting and/or antimicrobial activity)	G B			MRSA (D)	S. epidermidis (M)	S. pneumoniae (D)	Organism, effect (microorganisms [2]; C. jejuni): C. jejuni (S); Organism, effect (microorganisms [2]; E. coli): E. coli (C); Organism, effect (microorganisms [2]; E. faecalis): E. faecalis (D)
